In PubChem BioAssay (NCI):
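96-well plates; 48 h exposure; 5 concentrations. Endpoints by linear interpolation between flanking doses. Not reached: highest tested concentration assigned. Definition used: TGI = concentration required for complete inhibition of growth.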

Columns and labels:
Experiment in all cases: NCI anticancer screen, dose series, 48 h
A549 NSCLC = tested on: A549 NSCLC
HS 578T breast = tested on: HS 578T breast
MDA-MB-435 = tested on: MDA-MB-435
SR leukemia = tested on: SR leukemia
NCI-H460 lung = tested on: NCI-H460 lung
HCT-15 colon = tested on: HCT-15 colon
786-0 renal = tested on: 786-0 renal
MCF7 breast = tested on: MCF7 breast
CCRF-CEM leukemia = tested on: CCRF-CEM leukemia
UACC-257 melanoma = tested on: UACC-257 melanoma
UO-31 renal = tested on: UO-31 renal
CAKI-1 renal = tested on: CAKI-1 renal
TK-10 renal = tested on: TK-10 renal
K-562 leukemia = tested on: K-562 leukemia
T-47D breast = tested on: T-47D breast
SNB-75 CNS = tested on: SNB-75 CNS
COLO 205 colon = tested on: COLO 205 colon
NCI-H226 lung = tested on: NCI-H226 lung
RXF 393 renal = tested on: RXF 393 renal

Row | Structure (SMILES) | TGI (A549 NSCLC) [µM] | TGI (HS 578T breast) [µM] | TGI (MDA-MB-435) [µM] | TGI (SR leukemia) [µM] | TGI (NCI-H460 lung) [µM] | TGI (HCT-15 colon) [µM] | TGI (786-0 renal) [µM] | TGI (MCF7 breast) [µM] | TGI (CCRF-CEM leukemia) [µM] | TGI (UACC-257 melanoma) [µM] | TGI (UO-31 renal) [µM] | TGI (CAKI-1 renal) [µM] | TGI (TK-10 renal) [µM] | TGI (K-562 leukemia) [µM] | TGI (T-47D breast) [µM] | TGI (SNB-75 CNS) [µM] | TGI (COLO 205 colon) [µM] | TGI (NCI-H226 lung) [µM] | TGI (RXF 393 renal) [µM]
1 | CN(C)Cc1cc(C(=O)/C=C/c2ccc(Cl)cc2)cc(CN(C)C)c1O | 28.7 | 49.3 | 26.5 | 45.7 | 21.8 | 54.4 | 20.2 | 39.6 | 94.2 | 29.2 | 19.9 | 20 | 39 | 21.4 | > 100 | 44.4 | 10.7 | 49.8 | 30.3
2 | Cc1cccc(-c2nc3ccc([N+](=O)[O-])cc3c(=O)o2)c1 | > 100 | 97.9 | > 100 | > 100 | > 100 | > 100 | > 100 | > 100 | 96.7 | > 100 | > 100 | > 100 | > 100 | > 100 | > 100 | > 100 | > 100 | > 100 | > 100
3 | CC(C)(C)C(=O)OCC1CCC[N+]2(C)CCCCC12 (stereo not given) | > 100 | > 100 | > 100 | > 100 | > 100 | > 100 | > 100 | > 100 | > 100 | > 100 | > 100 | > 100 | > 100 | > 100 | > 100 | > 100 | > 100 | > 100 | > 100
4 | CCCCCCCCCCCCCCCCCCNc1ccn(C2OC(COP(=O)(O)OCC3OC(n4cc(C)c(=O)[nH]c4=O)CC3O)C(O)C2O)c(=O)n1 (stereo not given) | 32.4 | 42.4 | 33.7 | 28.2 | 36.3 | 33.5 | 31.9 | > 100 | 23.6 | 37.1 | 33.9 | 33.2 | 22.3 | 50.2 | 41.8 | 33 | 28.1 | 42.1 | 25.9
5 | Cc1ccc(S(=O)(=O)N/N=C/C(=C/c2ccc(Cl)cc2)CC(/C=N/NS(=O)(=O)c2ccc(C)cc2)=C\c2ccc(Cl)cc2)cc1 | > 100 | 21.5 | 14.2 | 24.5 | 30.3 | 12.3 | 4.38 | 12.6 | 8.8 | 63.6 | 18.7 | 68.4 | 45.6 | 8.19 | 19.2 | 60.1 | 16.9 | 38 | 7.38
6 | O=C(CCCn1ccnc1[N+](=O)[O-])NCCn1cncc1[N+](=O)[O-] | > 100 | > 100 | > 100 | > 100 | > 100 | > 100 | > 100 | > 100 | > 100 | > 100 | > 100 | > 100 | > 100 | > 100 | > 100 | > 100 | > 100 | > 100 | > 100
7 | CCN(CC)c1c(N(CC)CC)c(=O)c1=O | 43.7 | 59.9 | 60.9 | > 100 | > 78.2 | 17 | 16.2 | 29.5 | 18.9 | 20.5 | 12 | 9.62 | 8.7 | > 100 | 10.4 | 62.6 | 8.24 | 30.9 | 25.2
8 | Nc1nc(N)c2[nH]c(CNc3ccc(C(=O)O)cc3)nc2n1 | > 100 | > 100 | > 100 | > 100 | > 100 | > 100 | > 100 | > 100 | > 100 | > 100 | > 100 | > 100 | > 100 | > 100 | > 100 | > 100 | > 100 | > 100 | > 100
9 | C=C1CC(c2ccc(OCCCN3C(=O)c4ccccc4C3=O)c(OC)c2)OC1=O (stereo not given) | 27 | 32.4 | 11.7 | 2.72 | 14.5 | 18.6 | 14.6 | 0.48 | 3.79 | 12.8 | 7.8 | 5.16 | 10.8 | 2.68 | 9.96 | 8.06 | 5.33 | 23.4 | 7
10 | O=Cc1ccc2c(c1)CC1(C2)Cc2ccc3c(c2C1)CCC3 (stereo not given) | > 100 | 21.5 | 7.4 | 18.3 | 38.7 | 34.4 | 28.3 | 22.8 | 21.1 | 33 | 25 | 46.8 | 40.5 | 25.6 | > 85.3 | 28.9 | 43.7 | 37.8 | 28.5
